Experiments:
CocE [1] = target: T1, CocE (Rhodococcus sp., UniProt Q9L9D7); assay: Inhibition of CocE (cleavage of 4-nitrophenyl acetate); type: biochemical, Rhodococcus sp. MB 1
T1 construct: generating a full-length CocE gene encoding the T172R mutation; His6 (C); made in house; host or cells: E. coli (pET-22b(+))
Protocol: (§1) Benzoic acid prevented 37° C.-induced formation of high molecular weight CocE aggregates (0.1 mg/ml enzyme concentrations) (see, e.g., FIG. 35). Benzoic acid (uM quantities) stabilized 37° C.-induced activity loss (see, e.g., FIG. 36), although the mechanism of this stabilization is complicated due to substrate inhibition at higher concentrations.
CocE catalyzes the cleavage of 4-nitrophenyl acetate (4NPA) to 4-nitrophenol (4NP) and acetate. The cleavage reaction was monitored by observation of product formation at 400 nm. Both 4NP and 4NPA (mM range) prevented 37° C.-induced formation of high molecular weight CocE aggregates (0.1 mg/ml enzyme concentrations).

CocE [2] = target: T1, CocE; assay: Stabilization against 37° C.-induced formation of high molecular weight CocE aggregates (gel); type: physicochemical, Rhodococcus sp. MB 1; settings: 0.1 mg/ml enzyme, mM range
Protocol: Plasmids containing the mutations were transformed into E. coli BL21 cells and IPTG-induced enzyme was purified on Ni-Agarose. Expressed proteins were then tested for enzymatic activity and for thermostability at 37° C. Enzyme activity was measured using the spectrophotometric assay as described in Example 1. Thermostability was also tested via the spectrophotometric assay by pre-incubation of both wild-type and mutants at 37° C. for various times. Additionally, the nature of the thermo-instability of both the wild-type and T172R mutant was analyzed by polyacrylamide gel electrophoresis under denaturing and non-denaturing conditions. Briefly, mutant and wild-type enzyme at 0.1 mg/ml were incubated at 37° C. for various time-points, cooled to 4° C., mixed with SDS-loading dye containing-mercaptoethanol and run on 10% SDS-PAGE gels (denaturing conditions) or run on native 10% polyacrylamide gels (non-denaturing conditions) at 4° C. Gels were fixed with 10% methanol, 7% acetic acid for 30 minutes, and then stained with Sypro-Ruby protein gel stain (Molecular Probes, Invitrogen) for 3 hours. Protein staining was visualized under UV-light using an AlphaImager™ 3400 (Alpha Innotech). Finally, the exact melting temperature of both the wild-type and T172R mutant were determined by circular dichroism using a JASCO-810 spectropolarimeter driven by a JASCO V500/FP-750 analysis program for Windows. The CD spectra were measured in millidegrees and normalized against PBS buffer.
(§2) Cocaine esterase (CocE) cleaves cocaine to produce Benzoic acid and Ecgonine methyl ester. Briefly, alternative substrates and inhibitors of cocaine, as well as compounds able to thermostabilize the enzyme, were investigated generally by substituting amide and thiol analogues at the reactive ester bond, or removing the bond (for inhibitors), substituting benzoyl analogues in place of the benzoic acid leaving group, and/or removing or altering the methyl-ester group on the ecgonine portion of the molecule. As discussed below, it was determined that some substrates, products, and inhibitors stabilized thermal denaturation of wild type CocE, as well as prevented thermally-induced aggregation in gel electrophoresis.
as §1, with “Cocaine is the natural substrate of Cocaine esterase (CocE). Cocaine cleavage was monitored by a drop in absorbance at 240 nm. Cocaine (mM range)” for “Benzoic acid”, “33). Cocaine” for “35). Benzoic acid”, “34),” for “36),”

CocE [3] = target: T1, CocE; assay: Stabilization of 37° C.-induced CocE activity loss; type: biochemical, Rhodococcus sp. MB 1; settings: uM quantities
Description: as §2
as §1, with “Cocaine is the natural substrate of Cocaine esterase (CocE). Cocaine cleavage was monitored by a drop in absorbance at 240 nm. Cocaine (mM range)” for “Benzoic acid”, “33). Cocaine” for “35). Benzoic acid”, “34),” for “36),”

O=C(O)c1ccccc1 [Benzoic acid]
Ki (CocE [1]): 310 µM | 37° C.-induced formation of high molecular weight CocE aggregates (CocE [2]): prevented | 37° C.-induced activity loss (CocE [3]): stabilized

Source: US9200265B2, “Anti-cocaine compositions and treatment” (priority 2006, dated 2015)
